Earlier results as cited in patent US20100323978A1, “Non-aqueous oil delivery system for ophthalmic drugs” (priority 2009, published 2010).
Where a name gives a salt, the structure may show the parent alone. Read-outs that look alike come from different tables or passages of the source.

Key:
rabbits = conditions: 10 micro Liters eye drop
[1] = warning label
rabbit eyes = conditions: aqueous suspension injected into the eyes for three days
[2] = 0.15 Molar suspended in sesame seed oil

Molecule: CNC[C@H](O)c1cccc(O)c1 [phenylephrine free base]
- mydriasis in the rabbit (rabbits; [2]): produced mydriasis

Molecule: CN(C)CCOC(=O)C(c1ccccc1)C1(O)CCCC1 (centres unmarked) [Cyclopentolate HCl]
- stability of powder [1]: not stable at room temperature

Molecule: alpha-hydroxy-testosterone
- intra-ocular pressure (rabbit eyes): decreased

Molecule: CNC[C@H](O)c1cccc(O)c1 [phenylephrine HCl]
- mydriasis in the rabbit (rabbits; [2]): ineffective
- mydriasis in the rabbit (rabbits; 0.5 Molar suspended in sesame seed oil): slightly effective
